In US8673366B2, “Chemotherapeutic and prophylactic pharmaceutical compositions” (priority 2004, dated 2014):
Like-named read-outs stand apart in the source and are kept apart here.

Columns and labels:
[1] = system: Escherichia coli (E. coli) strain procured from a patient; assay: MIC macrodilution (NCCLS) serial dilution; assay type: cell-based; set-up: key to growth in MIC tube: “+” denotes visually detectable growth in MIC tube.; “NG” denotes “no growth” in MIC tube; key to MIC: “NE” denotes not effective; conditions: for MIC: antibiotics
Procedure: (§1) Cell suspension concentration was calculated by measuring the optical density (A610) between 0.6 and 0.9.
(§2) To study efficacy, the challenge was done by determining minimum inhibitory concentration or MIC by employing serial dilutions. The minimum inhibitory concentration or MIC is defined as the minimum concentration of antibiotic that will inhibit the growth of the isolated microorganism. In its normal mode of operation, a bacterial inoculum is inoculated into tubes containing culture media and varying concentrations of the antibiotic to be tested. The tubes are incubated to allow bacterial growth. The MIC is read as the lowest concentration of biocide that inhibited bacterial growth. The interpretation of this MIC depends on the organism/biocide pair being tested, and is made following standard guidelines. MIC testing of the present compositions was conducted via a macrodilution procedure using NCCLS (National Committee for Clinical Laboratory Standards) methods for antibiotic susceptibility testing. The biological experiments were conducted by serial dilution with Muller Hinton media of ten tubes where the bacterial concentration was 10 million cells/ml in each. In addition to the “as is” samples (i.e. 100%), ten 1:1 serial dilutions of each sample were tested to determine the MIC for each sample-inoculum combination. The equivalent percentages of the dilutions are: 100, 50, 25, 12.5, 6.25, 3.125, 1.562, 0.781, 0.391, and 0.195%. These tubes were then incubated at 37±2° C. for approximately 24 hours without agitation. The tubes were then observed for presence and level of visible growth.

[2] = system: Staphylococcus aureus (S. aureus) ATCC 43300; assay: MIC macrodilution (NCCLS) serial dilution; assay type: cell-based; set-up: key to growth in MIC tube: “+” denotes visually detectable growth in MIC tube.; “NG” denotes “no growth” in MIC tube; conditions: for MIC: antibiotics
Procedure: as §1, §2

Jurkat = conditions: Example 2, FIG. 3, down to dilution 1:256 (18 and 3.64 μM silver and iron)
Procedure: (§3) Cells are plated in a 96 well flat bottom tissue culture plates at 10,000 cells/well. Dilutions and controls are added to wells as follows:
(§4) Vero Cells were grown and tested in complete Dulbeco's Modified Eagles Medium (DMEM) supplemented with 15% Fetal Bovine Serum (FBS), Gentamicine 40 μg/ml, Hepes buffer at pH=7.2, L-Glutamine 2 mM and Sodium pyruvate. MCF-7 were grown and tested in complete RPMI-1640 medium supplemented with 10% FBS Gentamicine 40 μg/ml, Hepes buffer at pH=7.2, L-Glutamine 2 mM and Sodium pyruvate. Plates were incubated in CO2 in a humidified incubator at 37° C. for 72 hrs, and then each well was harvested and counted by Trypan Blue dye exclusion method. Numbers of viable cells were counted on a hemacytometer and adjusted for concentration of cells/ml. For comparative purposes, experiments with Cisplatin ([…], MW=300), a well-known chemotherapeutic drug, at 8 and 4 μM were also conducted.
(§5) The methodology was the same as the one employed for Example 1 above.

MCF-7 = conditions: for % Inhibition: 72 hrs
Procedure: as §3, §4, §5

[3] = system: BHL-89 (Human B-type EBNA negative lymphoma); conditions: Example 2, FIG. 3, down to dilution 1:256 (18 and 3.64 μM silver and iron)
Procedure: as §3, §4, §5

T-47D = conditions: Example 2, FIG. 3, down to dilution 1:256 (18 and 3.64 μM silver and iron)
Procedure: as §3, §4, §5

[4] = system: Vero (Simian Kidney Immortalized Cell Line); assay: Cytotoxic effect, Trypan Blue viable cell count after 72 hrs; assay type: cell-based
Procedure: as §3, §4

[5] = 100% of initial, approx. 24 hours, 37°C
[6] = S. aureus (ATCC 43300), 100% of initial, approx. 24 hours, 37°C

Row | Compound | growth in MIC tube ([1]; 0.195% of initial) | growth in MIC tube ([1]; 0.391% of initial) | growth in MIC tube ([1]; 0.781% of initial) | growth in MIC tube ([1]; 1.562% of initial) | growth in MIC tube ([1]; 3.125% of initial) | growth in MIC tube ([1]; 6.25% of initial) | growth in MIC tube ([1]; 12.5% of initial) | growth in MIC tube ([1]; 25% of initial) | growth in MIC tube ([1]; 50% of initial) | growth in MIC tube [1, 5] | growth in MIC tube [2, 6] | growth in MIC tube ([2]; S. aureus, 0.195% of initial) | growth in MIC tube ([2]; S. aureus, 0.391% of initial) | growth in MIC tube ([2]; S. aureus, 0.781% of initial) | growth in MIC tube ([2]; S. aureus, 1.562% of initial) | growth in MIC tube ([2]; S. aureus, 3.125% of initial) | growth in MIC tube ([2]; S. aureus, 6.25% of initial) | growth in MIC tube ([2]; S. aureus, 12.5% of initial) | growth in MIC tube ([2]; S. aureus, 25% of initial) | growth in MIC tube ([2]; S. aureus, 50% of initial) | also measured
1 | OO [50 mM H2O2, hydrogen peroxide] | + | + | + | + | + | + | + | NG | NG | NG | + | + | + | + | + | + | + | + | + | + | –
2 | O=P1(N(CCCl)CCCl)NCCCO1 (stereo not shown) [cyclophosphamide] | – | – | – | – | – | – | – | – | – | – | – | – | – | – | – | – | – | – | – | – | cytotoxic effect (in words) (Jurkat): minimum effects; cytotoxic effect (in words) (MCF-7; Example 2, FIG. 3, down to dilution 1:256 (18 and 3.64 μM silver and iron)): minimum effects; cytotoxic effect (in words) [3]: does not have any effects; cytotoxic effect (in words) (T-47D): does not have any effects
3 | N.N.[Cl][Pt][Cl] [Cisplatin] | – | – | – | – | – | – | – | – | – | – | – | – | – | – | – | – | – | – | – | – | % Inhibition ([4]; 4 μM): no effect; % Inhibition ([4]; 4 μM, listed as CIS PLA): −7%; % Inhibition ([4]; 8 μM): 61%; % Inhibition (MCF-7; 4 μM): 72%; % Inhibition (MCF-7; 8 μM): 90%
4 | Gentamicin | + | + | + | + | + | + | + | + | + | + | NG | NG | NG | NG | NG | NG | NG | NG | NG | NG | MIC [1]: NE; MIC ([2]; S. aureus): 0.391 ppm
5 | Cc1onc(-c2ccccc2)c1C(=O)N[C@@H]1C(=O)N2[C@@H]1SC(C)(C)[C@@H]2C(=O)O [OXA, Oxacillin] | + | + | + | + | + | + | + | + | + | + | NG | + | + | NG | NG | NG | NG | NG | NG | NG | MIC [1]: NE; MIC ([2]; Staphylococcus aureus, ATCC43300, S. aureus, read-out: MIC): 1.56 µg/mL
